Measurements from US20160281050A1, “METHODS FOR TREATING A CULTURE OF HAEMATOCOCCUS PLUVIALIS FOR CONTAMINATION USING SALT AND HYDROGEN PEROXIDE” (HELIAE DEVELOPMENT LLC, priority 2015, published 2016).
Like-named read-outs stand apart in the source and are kept apart here.

Legend:
[1] = system: Haematococcus pluvialis (Strain 1) green swimmer cells; details: for % Lysis: samples from Bioreactor #2430 48 hours after transfer
Method: A series of experiments were conducted to determine if treating a culture of Haematococcus pluvialis with hydrogen peroxide prevents lysis.

[2] = system: chytrids
Description: Culture samples of Haematococcus pluvialis (Strain 2) were collected on the second day of culture from open raceway bioreactor #2410 operating in conditions: reactor volume of 150,000 L; Daily PAR of 9.77 mol m^−2 d^−1; pH of 7.3; and paddlewheel speed of 70%. Culture samples were distributed into flasks for culturing, consisting of duplicate untreated controls and duplicate treatments. […] Samples were taken from the flask cultures daily to quantify % lysis and % chytrid infection and cell dry weight was quantified every other day for a duration of 11 days.

[3] = system: chytrids; remark: listed apart in the source
Description: Culture samples of Haematococcus pluvialis (Strain 2) were collected on the second day of the culture from open raceway bioreactor #2430 operating in conditions: reactor volume of 170,000 L; Daily PAR not measured; pH of 7.3; and paddlewheel speed of 70. The culture samples were distributed into flasks for culturing, consisting of duplicate untreated controls and duplicate treatments. […] Samples were taken from the flask cultures daily to quantify % lysis and % chytrid infection and cell dry weight was quantified every other day for a duration of 11 days.

[4] = 0.0105 mL/L 1 time per day, day 3
[5] = 0.0105 mL/L 1 time per day, day 4
[6] = 0.0105 mL/L 1 time per day, day 5
[7] = 0.0105 mL/L 1 time per day, day 6
[8] = 0.0105 mL/L 1 time per day, day 7

hydrogen peroxide [H2O2]
lysis level with the hydrogen peroxide treatments ([1]; Tables 6 and 7, 0.007 mL/L three times per day): less than 30% | % Lysis (±1SD) ([1]; samples from Bioreactor #2330, 0.007 mL/L three times per day, 0 h): 8.3 ± 7.6% | % Lysis (±1SD) ([1]; samples from Bioreactor #2330, 0.007 mL/L three times per day, 24 h): 10.0 ± 4.7% | % Lysis (±1SD) ([1]; samples from Bioreactor #2330, 0.007 mL/L three times per day, 48 h): 12.5 ± 3.5% | % Lysis (±1SD) ([1]; samples from Bioreactor #2330, 0.007 mL/L three times per day, 72 h): 0.0 ± 0.0% | % Lysis (±1SD) ([1]; samples from Bioreactor #2330, 0.007 mL/L three times per day, 120 h): 0.8 ± 1.2% | % Lysis (±1SD) ([1]; samples from Bioreactor #2430 24 hours after transfer, 0.007 mL/L three times per day, 0 h): 0.0 ± 0.0% | % Lysis (±1SD) ([1]; samples from Bioreactor #2430 24 hours after transfer, 0.007 mL/L three times per day, 24 h): 7.5 ± 1.2% | % Lysis (±1SD) ([1]; samples from Bioreactor #2430 24 hours after transfer, 0.007 mL/L three times per day, 48 h): 0.0 ± 0.0% | % Lysis (±1SD) ([1]; samples from Bioreactor #2430 24 hours after transfer, 0.007 mL/L three times per day, 96 h): 4.1 ± 1.2% | % Lysis ([1]; 0.007 mL/L three times per day, 0 h): 3.3 ± 2.9% | % Lysis ([1]; 0.007 mL/L three times per day, 24 h): 25.0 ± 9.4% | % Lysis ([1]; 0.007 mL/L three times per day, 96 h): 16.7 ± 4.7% | reduction of lysis ([1]; vs control cultures, Tables 6 and 7): 60-80% | % Chytrid infection ([2]; 0.0105 mL/L 1 time daily for 3 days, day 1): 0.0 ± 0.0% | % Chytrid infection ([2]; 0.0105 mL/L 1 time daily for 3 days, day 2): 0.0 ± 0.0% | % Chytrid infection ([2]; 0.0105 mL/L 1 time daily for 3 days, day 3): 0.0 ± 0.0% | % Chytrid infection ([2]; 0.0105 mL/L 1 time daily for 3 days, day 4): 0.0 ± 0.0% | % Chytrid infection ([2]; 0.0105 mL/L 1 time daily for 3 days, day 5): 0.8 ± 1.2% | % Chytrid infection ([2]; 0.0105 mL/L 1 time daily for 3 days, day 6): 0.0 ± 0.0% | % Chytrid infection ([2]; 0.0105 mL/L 1 time daily for 3 days, day 7): 1.7 ± 2.4% | % Chytrid infection ([2]; 0.0105 mL/L 1 time every other day, day 1): 0.0 ± 0.0% | % Chytrid infection ([2]; 0.0105 mL/L 1 time every other day, day 2): 0.0 ± 0.0% | % Chytrid infection ([2]; 0.0105 mL/L 1 time every other day, day 3): 2.5 ± 1.2% | % Chytrid infection ([2]; 0.0105 mL/L 1 time every other day, day 4): 0.0 ± 0.0% | % Chytrid infection ([2]; 0.0105 mL/L 1 time every other day, day 5): 0.8 ± 1.2% | % Chytrid infection ([2]; 0.0105 mL/L 1 time every other day, day 6): 3.3 ± 0.0% | % Chytrid infection ([2]; 0.0105 mL/L 1 time every other day, day 7): 0.8 ± 1.2% | % Chytrid infection ([2]; 0.0105 mL/L 1 time per day, day 1): 0.0 ± 0.0% | % Chytrid infection ([2]; 0.0105 mL/L 1 time per day, day 2): 0.0 ± 0.0% | % Chytrid infection [2, 4]: 0.0 ± 0.0% | % Chytrid infection [2, 5]: 0.0 ± 0.0% | % Chytrid infection [2, 6]: 2.5 ± 3.5% | % Chytrid infection [2, 7]: 0.0 ± 0.0% | % Chytrid infection [2, 8]: 0.0 ± 0.0% | chytrid infection ([2]; all treated flasks, 0.0105 mL/L): below 5% | % Chytrid infection ([3]; 0.0105 mL/L 1 time per day for 3 d then every other day, day 0): 0.0 ± 0.0% | % Chytrid infection ([3]; 0.0105 mL/L 1 time per day for 3 d then every other day, day 3): 0.0 ± 0.0% | % Chytrid infection ([3]; 0.0105 mL/L 1 time per day for 3 d then every other day, day 4): 0.8 ± 1.2% | % Chytrid infection ([3]; 0.0105 mL/L 1 time per day for 3 d then every other day, day 5): 5.0 ± 2.4% | % Chytrid infection ([3]; 0.0105 mL/L 1 time per day for 3 d then every other day, day 6): 2.5 ± 1.2% | % Chytrid infection ([3]; 0.0105 mL/L 1 time per day for 3 d then every other day, day 7): 0.0 ± 0.0% | % Chytrid infection ([3]; 0.0105 mL/L 1 time per day for 3 d then every other day, day 8): 0.0 ± 0.0% | % Chytrid infection ([3]; 0.0105 mL/L 1 time per day for 3 d then every other day, day 9): 2.5 ± 3.5% | % Chytrid infection ([3]; 0.0105 mL/L 1 time per day for 3 d then every other day, day 10): 1.7 ± 2.4% | % Chytrid infection ([3]; 0.0105 mL/L 1 time per day, day 0): 0.0 ± 0.0% | % Chytrid infection [3, 4]: 0.0 ± 0.0% | % Chytrid infection [3, 5]: 0.8 ± 1.2% | % Chytrid infection [3, 6]: 0.8 ± 1.2% | % Chytrid infection [3, 7]: 1.7 ± 2.4% | % Chytrid infection [3, 8]: 3.3 ± 0.0% | % Chytrid infection ([3]; 0.0105 mL/L 1 time per day, day 8): 0.0 ± 0.0% | % Chytrid infection ([3]; 0.0105 mL/L 1 time per day, day 9): 0.8 ± 1.2% | % Chytrid infection ([3]; 0.0105 mL/L 1 time per day, day 10): 0.0 ± 0.0% | % Chytrid infection ([3]; 0.0140 mL/L 1 time per day for 3 d then every other day, day 0): 0.0 ± 0.0% | % Chytrid infection ([3]; 0.0140 mL/L 1 time per day for 3 d then every other day, day 3): 0.0 ± 0.0% | % Chytrid infection ([3]; 0.0140 mL/L 1 time per day for 3 d then every other day, day 4): 0.0 ± 0.0% | % Chytrid infection ([3]; 0.0140 mL/L 1 time per day for 3 d then every other day, day 5): 0.0 ± 0.0% | % Chytrid infection ([3]; 0.0140 mL/L 1 time per day for 3 d then every other day, day 6): 1.7 ± 2.4% | % Chytrid infection ([3]; 0.0140 mL/L 1 time per day for 3 d then every other day, day 7): 0.0 ± 0.0% | % Chytrid infection ([3]; 0.0140 mL/L 1 time per day for 3 d then every other day, day 8): 0.8 ± 1.2% | % Chytrid infection ([3]; 0.0140 mL/L 1 time per day for 3 d then every other day, day 9): 0.0 ± 0.0% | % Chytrid infection ([3]; 0.0140 mL/L 1 time per day for 3 d then every other day, day 10): 0.0 ± 0.0% | % Chytrid infection ([3]; 0.0140 mL/L 1 time per day, day 0): 0.0 ± 0.0% | % Chytrid infection ([3]; 0.0140 mL/L 1 time per day, day 3): 0.0 ± 0.0% | % Chytrid infection ([3]; 0.0140 mL/L 1 time per day, day 4): 0.0 ± 0.0% | % Chytrid infection ([3]; 0.0140 mL/L 1 time per day, day 6): 0.0 ± 0.0% | % Chytrid infection ([3]; 0.0140 mL/L 1 time per day, day 7): 1.7 ± 2.4% | % Chytrid infection ([3]; 0.0140 mL/L 1 time per day, day 8): 0.8 ± 1.2% | % Chytrid infection ([3]; 0.0140 mL/L 1 time per day, day 9): 0.8 ± 1.2% | % Chytrid infection ([3]; 0.0140 mL/L 1 time per day, day 10): 0.0 ± 0.0% | % Chytrid infection ([3]; 0.0175 mL/L 1 time per day for 2 d then every other, day 0): 0.0 ± 0.0% | % Chytrid infection ([3]; 0.0175 mL/L 1 time per day for 2 d then every other, day 3): 0.0 ± 0.0% | % Chytrid infection ([3]; 0.0175 mL/L 1 time per day for 2 d then every other, day 4): 0.0 ± 0.0% | % Chytrid infection ([3]; 0.0175 mL/L 1 time per day for 2 d then every other, day 5): 0.0 ± 0.0% | % Chytrid infection ([3]; 0.0175 mL/L 1 time per day for 2 d then every other, day 6): 0.8 ± 1.2% | chytrid infection ([3]; all treated flasks): under 10%
